This note sets out measurements from article PMC6891695, “Evaluation of Antifouling Potential and Ecotoxicity of Secondary Metabolites Derived from Red Algae of the Genus Laurencia” (Marine Drugs, 2019).

Read-outs that look alike come from different tables or passages of the source.

One data set has as its system cyprids of A. amphitrite. As to the kind of experiment: whole plant or invertebrate. It counts as in vivo. To be noted: for EC50 / IC50: Amphibalanus amphitrite; for EC50: read-out: EC50 No Metamorphosis; for IC50: read-out: IC50 Settlement; for EC50 values for settlement inhibition of barnacle cyprids (in words): consistently, 24-72 h. The protocol:
(§1) Adult A. amphitrite (Cirripedia, Balanidae) were collected from boat docks at Port Mikrolimano and Floisvos, Athens, Greece. Animals were cleaned of epibionts with a small hard brush and meticulously identified as individuals of the species. Adult barnacles were kept in separate aerated glass tanks (20 L) containing 200-μm filtered natural seawater at 27 °C and a 12:12 L:D photoperiod. Tanks were fed with 24-h hatched Artemia sp. (Branchiopoda) nauplii and Tetraselmis suecica (Chlorodendrophyceae) and Skeletonema costatum (Bacillariophyceae) algae each day and seawater was changed on alternate days. Upon stress to induce oviposition (exposure to air for 24 h or immersion in fresh water for 5 h), adults were returned to seawater for larval release. Hatched nauplii were attracted to a point light source, collected and placed into a beaker containing 2 or 3 L of 0.7 μm GF/F (GE Healthcare, Little Chalfont, UK )-filtered natural seawater at a density of approximately 1–2 nauplii/mL with gentle aeration. Nauplii were maintained at 27 °C at a 12:12 L:D photoperiod on a diet of C. gracilis (Bacillariophyceae) provided at a density of 2 × 10^5 cells/mL. Cultured in these conditions, nauplii metamorphosed to cyprids in 5 days. Aliquots of these cyprids were collected with a wide-mouthed Pasteur pipette and aged at 4 °C for 1 day prior to use in settlement assays. Only batches of cyprids that were active and had numerous oil cells, representing energy reserves, were used in settlement assays.
(§2) Assays were conducted by adding 10 cyprids into individual wells of a 24-well polystyrene sterile microplate (Orange Scientific, Braine l’Alleud, Belgium) with 2 mL of artificial sea water (ASW) (25‰) and various concentrations of the chemical compounds as listed in Table 1. These experiments were repeated at least three times with four replicates for each concentration of any given compound (n = 120 cyprids/compound). Stock solutions for all compounds were prepared in methanol (Scharlab, Barcelona, Spain) and serial dilutions were prepared in 0.7 μm (GF/F, GE Healthcare, Little Chalfont, UK), filtered sea water to have a final concentration of 2.5% methanol in each assay solution. Plates were covered and sealed with Parafilm® to avoid evaporation and incubated at 25 °C away from any light source and examined after 24, 48 and 72 h. Each animal was inspected under a stereomicroscope and its condition was recorded. […] Both permanently attached and metamorphosed individuals were counted as settled or juveniles. The remainder were counted as ‘no metamorphosis’, i.e. animals that responded to light touch and were still cyprids at the end of the experiments with no overt signs of metamorphosis.
(§3) For EC50 or IC50 (the concentration that results in 50% stimulation or inhibition relative to the control) calculations in GraphPad Prism v.6, all data were fitted to the curve according to the following models for normalized response: Y = 100/(1 + 10^((X − LogIC50))) or Y = 100/(1 + 10^((LogEC50 − X))) depending on the trend of the curve.

A short description of a further data set: in vivo. Format: in vivo. To be noted: Amphibalanus amphitrite, in vivo, read-out: LC50 Mortality; for LC50 at 24 h: 24 h exposure; for LC50 at 48 h: 48 h exposure; for LC50 at 72 h: 72 h exposure. The protocol:
as §1, §2, §3

The test system of another data set is A. salina nauplii. As to the kind of experiment: Artemia salina toxicity assay. Format: in vivo. Conditions: in vivo. The protocol: (§4) The short-term toxicity assay with A. salina nauplii was used to determine the toxicity of secondary metabolites. Hatching of A. salina nauplii was carried out in ASW (35‰) using 0.5 g of cysts incubated in 500 mL seawater at a temperature of 25 ± 1 °C and lateral illumination (1000 Lux). All cysts were kept in continuous suspension with aeration and 24 h later hatched larvae (instar I) were harvested. Toxicity assays were carried out in three independent experiments in 24-well plates with four replicates of each tested concentration. Ten nauplii per well were transferred with a Pasteur pipette into the 24-well plates and each well was filled with 2 mL of ASW and 50 μL of various concentrations of the tested compounds in methanol. Control treatments received 50 μL of methanol. Plates were incubated in the dark at 25 ± 1 °C for 48 h. Mortality was assessed by recording the number of individuals with no movement of their appendages within 10 seconds and is expressed as the percentage of the total number of assessed individuals for each concentration.
as §3

Data set [1] can be described thus: Artemia salina toxicity assay. Format: in vivo. Conditions: Artemia salina, in vivo, read-out: EC50 Artemia salina toxicity (mortality). The protocol: as §4, §3
The next data set relates to Chaetoceros gracilis. In words: Chaetoceros gracilis toxicity (phytoplankton growth) assay. Format: cell-based. To be noted: 96 h; for EC50: Chaetoceros neogracilis. The protocol: For phytoplankton growth toxicity assays, the criterion for assay validity was that the cell count of the negative control after 96 h should be ≥2 × 10^5 cells/mL [40].
The centric marine diatom C. gracilis Schütt (strain CCMP1315) was grown photoautotrophically in autoclaved artificial seawater (sea salts; Sigma-Aldrich, St. Louis, MO, USA) (30‰) supplemented with F/2 (half-strength medium f as subsequently modified) in 100 mL medium at 20 °C and with ambient air bubbled in the media. By monitoring cell density, an adjusted culture of >1 × 10^6 cells/mL was used for the toxicity assays. At 96 h, a 0.9 mL aliquot of each treatment was sampled, mixed with 0.1 mL Lugol and cell density was counted. Experiments were assumed valid if cell count in the control after 96 h was […].
as §3

Data set [2] relates to five strains of marine bacteria. As to the kind of experiment: Marine bacteria growth assay, positive control (strain not specified). It counts as cell-based. To be noted: 40 μL of 0.5 M per disc. The protocol:
The ability of selected metabolites to inhibit the growth of bacteria was assessed using five strains of marine bacteria involved in marine surface biofilm formation, namely, B. subtilis, B. mojavensis, B. thuringiensis, P. putita and P. pseudoalcaligenes. Bacterial strains were maintained on Zobel marine agar plates. Sterile filter paper discs (4 mm) (GF/F; GE Healthcare, Little Chalfont, UK) were loaded with 40 μL samples of serial dilutions of each tested metabolite, allowed to dry at room temperature and then placed on agar plates (Zobel marine agar, pH = 7.3), which were seeded with a single strain of bacteria. Plates were incubated for 24 h at 25 °C. Marine bacteria growth inhibition was determined by measuring the zone of inhibition in mm around the filter paper disc. As a positive and negative control, standard discs were loaded with 40 μL of 0.5 M penicillin G (2 to 10 mm diameter) or solvent (40 μL methanol), respectively.

A word on the EC50: it is the concentration that produces a half-maximal response. What is called IC50 is the point on the concentration scale where inhibition reaches its midpoint. Take `Cc1ccc(C2(C)CCC(=CBr)C2C)c(O)c1` (centres unmarked) [Compound 4, iso-laurenisol]: in the data set with cyprids of A. amphitrite (24 h), the EC50 stood at 10.3 µM and the concentration for half-maximal inhibition (IC50) was 0.12 µM. Further, in the data set on cyprids of A. amphitrite (48 h), the EC50 was 12.4 µM and the IC50 was found to be 0.18 µM. In the data set on cyprids of A. amphitrite (72 h), the EC50 is 5.85 µM and the IC50 turned out to be 0.34 µM. Also, the “EC50 values for settlement inhibition of barnacle cyprids (in words)” value (“EC50 values for settlement inhibition” for short) in the data set on cyprids of A. amphitrite is listed as “sub-micromolar”. In the data set “in vivo”, the LC50 at 24 h is 3.55 µM, the LC50 at 48 h is 2.98 µM and the LC50 at 72 h is 2.8 µM. Also, in the data set on A. salina nauplii, the “A. salina exclusion criterion (>10-fold change in EC50 between 24 h and 48 h)” value is reported as “did not pass this criterion”. For the same compound, in data set [1], the LC50 at 24 h was determined as 21.1 µM and the LC50 at 48 h is 0.739 µM.
On to `CC1C(Br)C(=O)C(C)C23CCC2(C)C(Br)CC13C` (centres unmarked) [Compound 11, perforatone], for which the results for the EC50 in the data set on cyprids of A. amphitrite (24 h), with cyprids of A. amphitrite (48 h) and in the data set with Chaetoceros gracilis were 0.003 µM, 0.002 µM and 4.52 µM, respectively. Besides, the values for the IC50 with cyprids of A. amphitrite (24 h), with cyprids of A. amphitrite (48 h) and in the data set on cyprids of A. amphitrite (72 h) were 0.003 µM, 0.002 µM and 0.002 µM, respectively. Also, the “EC50 values for settlement inhibition” value in the data set with cyprids of A. amphitrite is on record as “sub-micromolar”. The LC50 at 24 h in the data set “in vivo” was found to be 56.1 µM; in data set [1], 10.1 µM. Further, the LC50 at 48 h amounted to 38.4 µM in “in vivo” and 1.57 µM in data set [1]. In addition, the “C. gracilis exclusion criterion (EC50 compared with bromosphaerol)” value with Chaetoceros gracilis was “did not pass this criterion”.
In the case of `C=C1C[C@H](O)[C@H](Br)C(C)(C)[C@@]12CCC(C)=C(Cl)C2` [Compound 12, elatol], in the data set on cyprids of A. amphitrite (24 h), the EC50 was 0.396 µM and the IC50 was found to be 0.089 µM. Moreover, in the data set with cyprids of A. amphitrite (48 h), the EC50 is 0.25 µM and the IC50 amounted to 0.073 µM. In the data set with cyprids of A. amphitrite (72 h), the EC50 was 0.066 µM and the IC50 was determined as 0.042 µM. Besides, in the data set with cyprids of A. amphitrite, the “EC50 values for settlement inhibition” value is “sub-micromolar”. Further, the “toxic effect on cyprids” value with cyprids of A. amphitrite (in vivo) was “obvious toxic effect on cyprids”. In addition, in the data set “in vivo”, the LC50 at 24 h is 0.327 µM, the LC50 at 48 h amounted to 0.194 µM and the LC50 at 72 h turned out to be 0.061 µM. In the data set with A. salina nauplii, the “A. salina exclusion criterion (>10-fold change in EC50 between 24 h and 48 h)” value is reported as “did not pass this criterion”. In addition, in data set [1], the LC50 at 24 h came to 6.59 µM and the LC50 at 48 h was 0.373 µM.
`CC1(C(Br)CO)CC=C2C(C1)C(O)CC1C2(C)CCC(Br)C1(C)C` (centres unmarked) [Compound 14, 3,15-dibromo-7,16-dihydroxy-isopimar-9(11)-ene]: the EC50 was determined as 6.42 µM in the data set with cyprids of A. amphitrite (24 h), 5.15 µM in the data set on cyprids of A. amphitrite (48 h), 7.72 µM in the data set on cyprids of A. amphitrite (72 h) and 1.61 µM in the data set with Chaetoceros gracilis. In addition, the IC50 with cyprids of A. amphitrite (24 h) worked out at 0.011 µM; with cyprids of A. amphitrite (48 h), 0.065 µM; with cyprids of A. amphitrite (72 h), 0.028 µM. Further, in the data set on cyprids of A. amphitrite, the “EC50 values for settlement inhibition” value was “sub-micromolar”. The results for the LC50 at 24 h (in the data set “in vivo”; in data set [1]) were 1.96 µM and 34.2 µM, respectively. Moreover, the LC50 at 48 h in “in vivo” came out at 3.61 µM; in data set [1], 15.1 µM. The LC50 at 72 h in “in vivo” is 3.54 µM. Further, the “C. gracilis exclusion criterion (EC50 compared with bromosphaerol)” value with Chaetoceros gracilis is “did not pass this criterion”.
With `C#CC=CCC1OC(C(Br)CC)CC(OC(C)=O)C(Cl)CC1Cl` (centres unmarked) [Compound 22, laurencienyne], in the data set on cyprids of A. amphitrite (24 h), the EC50 came out at 0.008 µM and the IC50 was 0.025 µM. Further, in the data set on cyprids of A. amphitrite (48 h), the EC50 was found to be 0.01 µM and the IC50 amounted to 0.043 µM. Further, in the data set on cyprids of A. amphitrite (72 h), the EC50 turned out to be 58.7 µM and the half-inhibitory concentration (IC50) stood at 0.055 µM. Besides, the “EC50 values for settlement inhibition” value in the data set with cyprids of A. amphitrite is reported as “sub-micromolar”. For the same compound, in “in vivo”, the LC50 at 24 h is 6.86 µM, the LC50 at 48 h amounted to 10.1 µM and the LC50 at 72 h came out at 71.3 µM. Further, in the data set on Chaetoceros gracilis, the “C. gracilis exclusion criterion (EC50 compared with bromosphaerol)” value is listed as “did not pass this criterion” and the EC50 was determined as 2.15 µM. Besides, in data set [1], the LC50 at 24 h worked out at 3.07 µM and the LC50 at 48 h amounted to 9.63 µM.
Regarding `CC1(C)S[C@@H]2[C@H](NC(=O)Cc3ccccc3)C(=O)N2[C@H]1C(=O)O` [penicillin G], the “zone of inhibition (diameter)” value in data set [2] was in the range of 2 to 10 mm.
